# US9802996B2, “Glycosylated polypeptide and drug composition containing said polypeptide” (Glytech, Inc., priority 2011, dated 2017)
# Legend:
# [1] = test system: growth hormone (GH) production; assay: GH production suppression test with rats; assay type: in vivo; details: for GH production suppression activity: administration of 10 or 100 nmol/kg;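 for all read-outs here: plasma GH measured by EIA in blood drawn 5 min after intravenous GRF stimulus, given 1 h after compound dosing, compared against saline-treated vehicle rats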
# Protocol: This experimental line was carried out as a test line that can evaluate the pharmacological action of the glycosylated form on SSTR and its residence in blood after administration, with blood GH production amount as an indicator.
# Moreover, GRF (GH releasing hormone, Growth hormone releasing factor) was used as the GH release enhancer. […] As heparin employed as the anticoagulant when collecting blood, Japanese Pharmacopeia heparin sodium injectable solution (Lot. B084, from Mochida Pharmaceutical Co., Ltd.) was used directly as stock solution.
# As the control group, saline without glycosylated polypeptide was similarly administered (vehicle group). […] One hour after administration of the glycosylated form, i.e. after 50 minutes or more had passed under anesthesia, GRF was administered as the GH release enhancer to the tail vain at a dosage of 1 mL/kg with a glass syringe and an injection needle. Five minutes after administration of GRF, blood was collected from the rat cervical vein with a glass syringe containing heparin and an injection needle. 0.4 mL of the collected blood was left on ice for 20 minutes or more, then centrifuged (1,870×g, 4° C., 10 minutes), and 100 μL of the supernatant was taken as the plasma sample. As blank plasma, plasma obtained by similarly treating the blood collected from untreated rat cervical vein was employed. Plasma samples were frozen in storage until employed for measurement.
# Measurement of GH concentration in the plasma sample obtained in the above 89-2 was performed with rat Growth Hormone EIA kit from SPI-Bio (SPI-Bio, A05104). The plasma sample was diluted with the assay buffer supplied in the EIA kit to 20, 100, and 500-folds as measurement samples. […] By multiplying the results obtained and the dilution ratio, the GH concentration was calculated.
# [2] = test system: rat gastrointestinal obstruction model; assay: Drug effect test in gastrointestinal obstruction model: intestinal fluid weight; assay type: in vivo, rats; details: for Intestinal fluid weight: jejunum wet weight-dry weight, 40 μM solution 1 mL/kg subcutaneous 18 h after surgery, one hour after administration; for intestinal fluid weight compared to the vehicle: rats, subcutaneous 40 nmol/kg, 1 hour after administration
# Description: Anesthesia was introduced with inhalation of 2% isoflurane and laughing gas:oxygen=7:3, and this was maintained throughout the surgery. A median incision was made in the abdomen, and the jejunum at about 10 cm from the musculus suspensorius duodeni was ligated with a surgical suture. Then, the incision site was promptly sutured, and the rats were fasted until compound administration. In the sham treatment group, ligation of the jejunum was not performed, but the treatment of suturing the incision site after a median incision was made in the abdomen was performed.
# (§1) Eighteen hours after the gastrointestinal obstruction surgery, this was subcutaneously administered into the dorsal cervix at a dosage of 1 mL/kg with a glass syringe and a 25 G injection needle (all from Terumo Corporation). As the vehicle group, saline without glycosylated polypeptide was similarly administered.
# One hour after compound administration, a median incision was made in the abdomen under inhalation anesthesia, and 1.5 mL of blood was collected from the abdominal vena cava. Then, the ligated jejunum on the musculus suspensorius duodeni side was resected. The fluid and blood on the jejunum surface were removed with a paper towel, nerves, blood vessels, and fat attached to the jejunum was removed, this was cut into 6 cm lengths, and wet weight was measured. This was then dried at 36 degrees for 24 hours, and dry weight was measured. The intestinal fluid weight (mg) was calculated by wet weight-dry weight.
# [3] = test system: rat gastrointestinal obstruction model; assay: Gastrointestinal obstruction model: blood parameters (amylase, LDH, CPK); assay type: in vivo, rats; details: for Amylase / CPK / LDH: rat gastrointestinal obstruction model, blood collected 1 hour after subcutaneous administration of 40 μM solution at 1 mL/kg, 18 hours after surgery; for amylase activity compared to the vehicle / LDH activity compared to the vehicle: rats, blood 1 hour after administration
# Protocol: This experimental line was carried out as a test line to evaluate the promotion of intestinal fluid absorption or the secretory suppressing action, using the change in the intestinal fluid weight in the jejunum after bowel obstruction as an indicator. Moreover, blood parameters of deviation enzymes amylase (pancreas), lactate dehydrogenase (LDH, liver), and creatine phosphokinase (CPK, skeletal muscle, cardiac muscle etc.) were measured as indicators of tissue disorders.
# The present test was consigned to Mitsubishi Chemical Medience Corporation and carried out. […] Anesthesia was introduced with inhalation of 2% isoflurane and laughing gas:oxygen=7:3, and this was maintained throughout the surgery. A median incision was made in the abdomen, and the jejunum at about 10 cm from the musculus suspensorius duodeni was ligated with a surgical suture. Then, the incision site was promptly sutured, and the rats were fasted until compound administration. In the sham treatment group, ligation of the jejunum was not performed, but the treatment of suturing the incision site after a median incision was made in the abdomen was performed.
# as §1
# One hour after compound administration, a median incision was made in the abdomen under inhalation anesthesia, and 1.5 mL of blood was collected from the abdominal vena cava.
# The measuring methods employed were BG5B, UV-rate, and JSCC methods, respectively.
# [4] = test system: SSTR1-SSTR5; assay: Competitive binding assay, statements over all receptors; design: species or system Human; details: Example 69-1, range over SSTR1-SSTR5
# [5] = Pharmacokinetics test with rats (intravenous and subcutaneous administration)
# [6] = Table 7, plasma GH, dose 1 nmol/kg subcutaneous, GRF 1 hour after administration, blood 5 min after GRF
# [7] = Table 7, plasma GH, dose 10 nmol/kg subcutaneous, GRF 1 hour after administration, blood 5 min after GRF
# [8] = Table 8, plasma GH, dose 1 nmol/kg
# [9] = Table 8, plasma GH, dose 3 nmol/kg
# [10] = Table 8, plasma GH, dose 10 nmol/kg
# [11] = Table 8, plasma GH, dose 30 nmol/kg
# [12] = Table 8, plasma GH, dose 100 nmol/kg
# [13] = intravenous administration, Table 5A
# [14] = subcutaneous administration, Table 5A
compound,measurement,setting,value
S1C(asialo)-SRIF28 [Example 27],GH production suppression effect,"[1]; rats, subcutaneous, 10 nmol/kg",70-99%
S1C(disialo)-SRIF28 [Example 1],GH,[1]; [6],490 ng/mL
same,GH,[1]; [7],17.1 ng/mL
same,GH,[1]; [8],787 ng/mL
same,GH,[1]; [9],182 ng/mL
same,GH,[1]; [10],15 ng/mL
same,GH,[1]; [11],8 ng/mL
same,GH,[1]; [12],7 ng/mL
same,dose from which GH production was suppressed,"[1]; rats, subcutaneous",≥ 1 nmol/kg
same,GH production suppression effect,"[1]; rats, subcutaneous, 3-10 nmol/kg",82-99%
same,Intestinal fluid weight,[2],630 ± 83 mg
same,intestinal fluid weight compared to the vehicle,[2],increase in the intestinal fluid weight compared to the vehicle
same,Amylase,[3],1164 ± 224 IU/L
same,CPK,[3],455 ± 202 IU/L
same,LDH,[3],338 ± 97 IU/L
same,amylase activity compared to the vehicle,[3],low value compared to the vehicle
S1C(monosialo)-SRIF28 [Example 26],GH production suppression effect,"[1]; rats, subcutaneous, 10 nmol/kg",70-99%
S1-2C(asialo)-SRIF28 [Example 28],"affinity towards SSTR1-SSTR5, folds higher than S1C(disialo)-SRIF28",[4],1.7-2.9 folds
same,GH production suppression effect,"[1]; rats, subcutaneous, 10 nmol/kg",70-99%
same,intestinal fluid weight compared to the vehicle,[2],increase in the intestinal fluid weight compared to the vehicle
S1-5C(disialo)-SRIF28 [Example 34],GH,[1]; [10],842 ng/mL
same,GH production suppression activity,[1]; rats,showed GH production suppression activity
same,AUC,[5]; [13],6016 ± 873 nM·min
same,C0,[5]; [13],752 ± 81.4 nM
same,MRT,[5]; [13],0.817 ± 0.101 h
same,t1/2,[5]; [13],1.66 ± 0.233 h
same,"AUC for subcutaneous administration, folds of S1C(disialo)-SRIF28",[5]; subcutaneous,1.8-3.1 folds
same,AUC,[5]; [14],5524 ± 633 nM·min
same,Cmax,[5]; [14],13.5 ± 2.85 nM
same,MRT,[5]; [14],6.48 ± 0.833 h
same,t1/2,[5]; [14],4.52 ± 0.645 h
same,bioavailability (BA),[5]; subcutaneous vs intravenous AUC,92%
same,BA,"[5]; subcutaneous vs intravenous administration, Table 5A",92%
A9C(disialo)-SRIF28 [Example 3],GH production suppression effect,"[1]; rats, subcutaneous, 10 nmol/kg",95-99%
S1C(disialo(aminoethylamide))-SRIF28 [Example 59],GH production suppression effect,"[1]; rats, subcutaneous, 10 nmol/kg",70-99%
S1C(disialo(amide))-SRIF28 [Example 60],GH production suppression effect,"[1]; rats, subcutaneous, 10 nmol/kg",70-99%
R13C(disialo)-SRIF28 [Example 5],GH production suppression activity,[1]; rats,showed GH production suppression activity
"C[C@@H](O)[C@@H]1NC(=O)[C@H](CCCCN)NC(=O)[C@@H](Cc2c[nH]c3ccccc23)NC(=O)[C@H](Cc2ccccc2)NC(=O)[C@@H](NC(=O)[C@H](N)Cc2ccccc2)CSSC[C@@H](C(=O)N[C@H](CO)[C@@H](C)O)NC1=O [Octreotide, reference compound]",intestinal fluid weight compared to the vehicle,[2],confirmed to have this effect
same,LDH activity compared to the vehicle,[3],low value compared to the vehicle
same,amylase activity compared to the vehicle,[3],equivalent to the vehicle
C(disialo)-R-K-SRIF14 [Example 18],"affinity towards SSTR1-SSTR5, folds higher than S1C(disialo)-SRIF28",[4],0.7-2.4 folds
same,GH,[1]; [8],912 ng/mL
same,GH,[1]; [9],291 ng/mL
same,GH,[1]; [11],12 ng/mL
same,GH production suppression effect,"[1]; rats, subcutaneous, 10 nmol/kg",95-99%
same,Intestinal fluid weight,[2],584 ± 95 mg
same,intestinal fluid weight compared to the vehicle,[2],increase in the intestinal fluid weight compared to the vehicle
same,Amylase,[3],985 ± 238 IU/L
same,CPK,[3],415 ± 137 IU/L
same,LDH,[3],228 ± 155 IU/L
same,LDH activity compared to the vehicle,[3],low value compared to the vehicle
same,amylase activity compared to the vehicle,[3],low value compared to the vehicle
K14C(disialo)-SRIF28 [Example 6],GH production suppression activity,[1]; rats,showed GH production suppression activity
S1C(disialo)•N5C(disialo)•A9C(disialo)-SRIF28 [Example 25],GH,[1]; [7],833 ng/mL
same,GH,"[1]; Table 7, plasma GH, dose 100 nmol/kg subcutaneous, GRF 1 hour after administration, blood 5 min after GRF",151 ng/mL
same,GH,[1]; [12],151 ng/mL
same,GH production suppression activity,[1]; rats,showed GH production suppression activity
E12C(disialo)-SRIF28 [Example 4],GH production suppression effect,"[1]; rats, subcutaneous, 10 nmol/kg",95-99%
N5C(disialo)-SRIF28 [Example 2],GH production suppression effect,"[1]; rats, subcutaneous, 10 nmol/kg",95-99%
S1C(disialo)•N5C(disialo)-SRIF28 [Example 21],GH,[1]; [6],776 ng/mL
same,GH,[1]; [7],181 ng/mL
same,GH,[1]; [8],776 ng/mL
same,GH,[1]; [10],181 ng/mL
same,GH production suppression activity,[1]; rats,showed GH production suppression activity
S1C(disialo)-D-Trp22-SRIF28 [Example 15],GH production suppression effect,"[1]; rats, subcutaneous, 10 nmol/kg",95-99%
S1C(disialo(Bn))-SRIF28 [Example 61],GH production suppression effect,"[1]; rats, subcutaneous, 10 nmol/kg",95-99%
